Results reported in patent US9532970B2, “Compositions for anti-inflammatory, antioxidant effects and improved respiratory function by specific histone deacetylase inhibition” (priority 2014, dated 2017).
Like-named read-outs stand apart in the source and are kept apart here.

How the values were obtained:
HDAC-7 = HDAC-7 (Homo sapiens, UniProt Q8WUI4); assay: Binding to metal dependent histone deacetylase enzymes (epigenetic assay services)
HDAC-3 = HDAC-3 (Homo sapiens, UniProt O15379)
HDAC8 [1] = biological target: T1, HDAC8 (Homo sapiens, UniProt Q9BY41)
Target sequence in this assay (Q9BY41 whole entry, species assumed): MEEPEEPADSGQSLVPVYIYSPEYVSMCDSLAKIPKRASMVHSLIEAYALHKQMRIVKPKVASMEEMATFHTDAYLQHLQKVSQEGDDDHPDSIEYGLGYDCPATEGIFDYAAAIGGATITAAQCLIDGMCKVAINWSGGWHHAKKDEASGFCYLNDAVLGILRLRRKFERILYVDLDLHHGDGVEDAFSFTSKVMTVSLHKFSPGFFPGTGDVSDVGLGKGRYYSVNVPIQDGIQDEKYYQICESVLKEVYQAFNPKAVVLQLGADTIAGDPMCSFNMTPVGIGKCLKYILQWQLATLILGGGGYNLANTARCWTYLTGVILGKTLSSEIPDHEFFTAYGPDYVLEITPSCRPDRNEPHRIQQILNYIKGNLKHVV

HDAC8 [2] = biological target: T1, HDAC8; conditions: FIG. 2
Target sequence in this assay (Q9BY41 whole entry): as the sequence (Q9BY41 whole entry, species assumed) above

[3] = tested on: peripheral blood mononuclear cells (PBMC)
[4] = tested on: ovalbumin (OVA)-induced AAD
H9c2 cells = conditions: pre-treated with 10, 15 and 30 μM for 24 hours prior to 1 μM doxorubicin
Horse PBMC = conditions: for Log2 Fold Change: LSF vs control
HDAC-6 = biological target: T2, HDAC-6 (Homo sapiens, UniProt Q9UBN7); assay: biochemical
T2 sequence (Q9UBN7 1-1215): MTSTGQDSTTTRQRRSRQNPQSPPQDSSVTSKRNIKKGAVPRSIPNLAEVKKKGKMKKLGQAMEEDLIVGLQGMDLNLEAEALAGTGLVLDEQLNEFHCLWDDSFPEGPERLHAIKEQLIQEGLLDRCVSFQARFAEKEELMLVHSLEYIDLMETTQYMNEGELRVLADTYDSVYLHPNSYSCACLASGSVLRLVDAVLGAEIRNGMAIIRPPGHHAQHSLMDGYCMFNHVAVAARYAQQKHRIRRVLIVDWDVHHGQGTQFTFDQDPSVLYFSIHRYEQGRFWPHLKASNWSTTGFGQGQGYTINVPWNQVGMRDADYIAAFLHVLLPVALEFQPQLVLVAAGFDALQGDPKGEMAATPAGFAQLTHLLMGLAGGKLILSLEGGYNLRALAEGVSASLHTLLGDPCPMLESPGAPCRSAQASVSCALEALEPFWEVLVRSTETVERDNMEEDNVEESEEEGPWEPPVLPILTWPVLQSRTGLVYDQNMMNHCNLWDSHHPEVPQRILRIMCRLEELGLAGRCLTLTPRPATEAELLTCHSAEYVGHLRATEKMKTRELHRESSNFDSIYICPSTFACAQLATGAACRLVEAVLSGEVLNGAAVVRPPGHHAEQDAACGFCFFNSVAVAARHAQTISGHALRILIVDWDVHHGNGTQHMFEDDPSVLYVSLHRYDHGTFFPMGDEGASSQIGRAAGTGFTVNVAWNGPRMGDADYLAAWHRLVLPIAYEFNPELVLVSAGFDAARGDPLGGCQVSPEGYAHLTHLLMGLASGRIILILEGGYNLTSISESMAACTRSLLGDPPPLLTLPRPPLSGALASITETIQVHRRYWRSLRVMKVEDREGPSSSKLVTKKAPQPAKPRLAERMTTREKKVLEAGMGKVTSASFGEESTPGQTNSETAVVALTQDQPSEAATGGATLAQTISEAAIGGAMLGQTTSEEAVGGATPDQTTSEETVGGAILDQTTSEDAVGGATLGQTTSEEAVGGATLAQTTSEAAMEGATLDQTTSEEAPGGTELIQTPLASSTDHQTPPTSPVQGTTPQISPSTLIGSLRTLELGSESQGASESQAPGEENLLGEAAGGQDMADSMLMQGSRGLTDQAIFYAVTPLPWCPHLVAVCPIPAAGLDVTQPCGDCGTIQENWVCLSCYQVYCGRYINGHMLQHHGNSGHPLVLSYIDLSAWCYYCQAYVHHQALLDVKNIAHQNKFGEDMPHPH

HDAC8 [5] = biological target: T1, HDAC8; assay: biochemical
Target sequence in this assay (Q9BY41 whole entry, species assumed): as the sequence (Q9BY41 whole entry, species assumed) above

[6] = more subtle than Trichostatin A
[7] = 5 mg/kg intraperitoneally following each OVA nebulization, compared to ovalbumin-sensitized mice
[8] = three control vs three LSF treated samples

Chain of HDAC-7 (Q8WUI4 whole entry): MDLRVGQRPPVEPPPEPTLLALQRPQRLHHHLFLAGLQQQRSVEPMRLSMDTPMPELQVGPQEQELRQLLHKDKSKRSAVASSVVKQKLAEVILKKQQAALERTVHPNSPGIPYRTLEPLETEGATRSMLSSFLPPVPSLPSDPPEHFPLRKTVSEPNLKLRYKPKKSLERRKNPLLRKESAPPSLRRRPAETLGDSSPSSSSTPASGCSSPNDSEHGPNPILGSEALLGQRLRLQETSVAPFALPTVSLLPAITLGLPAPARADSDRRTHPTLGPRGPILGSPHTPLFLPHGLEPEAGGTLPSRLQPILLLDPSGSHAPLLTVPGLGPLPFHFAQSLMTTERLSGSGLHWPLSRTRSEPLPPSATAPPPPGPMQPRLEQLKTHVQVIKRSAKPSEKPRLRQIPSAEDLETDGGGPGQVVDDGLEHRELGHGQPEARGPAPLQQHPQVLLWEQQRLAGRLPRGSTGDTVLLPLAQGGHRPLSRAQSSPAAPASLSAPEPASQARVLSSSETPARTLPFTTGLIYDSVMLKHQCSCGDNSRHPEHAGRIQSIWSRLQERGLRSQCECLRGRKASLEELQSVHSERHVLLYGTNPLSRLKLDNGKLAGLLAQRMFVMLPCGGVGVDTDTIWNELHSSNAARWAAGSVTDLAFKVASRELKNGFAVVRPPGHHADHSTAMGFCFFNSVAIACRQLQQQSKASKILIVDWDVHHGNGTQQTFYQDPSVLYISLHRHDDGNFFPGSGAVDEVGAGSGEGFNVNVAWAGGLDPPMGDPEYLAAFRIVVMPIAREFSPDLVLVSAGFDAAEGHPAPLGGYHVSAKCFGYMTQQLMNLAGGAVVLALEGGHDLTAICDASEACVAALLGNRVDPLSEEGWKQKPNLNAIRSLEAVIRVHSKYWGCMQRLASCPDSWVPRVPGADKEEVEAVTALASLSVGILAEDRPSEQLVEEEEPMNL
Chain of HDAC-3 (O15379 whole entry, species assumed): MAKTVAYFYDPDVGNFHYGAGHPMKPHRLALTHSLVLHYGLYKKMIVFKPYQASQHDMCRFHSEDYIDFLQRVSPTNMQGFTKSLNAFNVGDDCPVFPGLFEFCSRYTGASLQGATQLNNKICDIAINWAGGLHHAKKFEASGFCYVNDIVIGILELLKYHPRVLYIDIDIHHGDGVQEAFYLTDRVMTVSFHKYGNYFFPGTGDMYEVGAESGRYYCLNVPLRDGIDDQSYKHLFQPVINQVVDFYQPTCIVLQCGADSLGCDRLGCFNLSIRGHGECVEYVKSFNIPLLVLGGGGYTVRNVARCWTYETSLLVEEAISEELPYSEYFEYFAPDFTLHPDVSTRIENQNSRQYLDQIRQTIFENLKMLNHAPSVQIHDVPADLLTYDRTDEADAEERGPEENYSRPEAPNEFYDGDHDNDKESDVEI
Chain of HDAC-3 (Q9Y618 395-489 partner limits assumed, species assumed): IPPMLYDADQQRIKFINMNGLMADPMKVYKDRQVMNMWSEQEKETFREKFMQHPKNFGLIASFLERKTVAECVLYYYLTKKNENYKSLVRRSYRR

SMILES: C[S@@+]([O-])CCCCN=C=S [LSF, (R)-1-Isothiocyanato-4-(methylsulfinyl)butane]
- HILLSLOPE (HDAC-7; HDAC-7): −0.41
- IC50 (HDAC-7; HDAC-7): 5.81 mM
- binding to HDAC 7 (in words) (HDAC-7; [6]): specific binding
- HILLSLOPE (HDAC-3; HDAC-3): −0.20
- binding to HDAC 3 (in words) (HDAC-3; [6]): specific binding
- binding to HDAC8 relative to the other HDACs (HDAC8 [1]; FIG. 1): most pronounced
- HILLSLOPE (HDAC8 [1]; HDAC-8): −0.88
- binding to HDAC 8 (in words) (HDAC8 [1]; [6]): specific binding
- inhibition of the enzymatic activity of HDAC8 (HDAC8 [2]): inhibits
- specificity of inhibition, HDAC8 compared to HDAC1 (HDAC8 [2]; HDAC1 and HDAC8 inhibitor Screening Assay Kits): specificity of L-sulforaphane for HDAC8 compared to HDAC1
- reduction in chemokines and cytokines relative to Trichostatin A (TSA), SAHA and sodium butyrate (NaB) ([3]; 1 μM TSA, 10 μM SAHA, 10 mM NaB, 15 or 30 μM LSF): more pronounced effects
- levels of TNF-α, IL-1β, IL-6, IL-8, MIP-1β and IP-10 in supernatants ([3]; 15 μM LSF or 30 μM LSF, FIG. 3): reduction
- airway wall thickness [4, 7]: reductions
- goblet cell hyperplasia [4, 7]: reductions
- inflammation [4, 7]: reductions
- Annexin V staining (apoptosis) in lung tissue ([4]; OVA-LSF 5 mg/kg, strong staining in OVA-VEH): Weak
- doxorubicin-induced accumulation of γH2AX foci (H9c2 cells): attenuates
- Log2 Fold Change (Horse PBMC; gene ABCA1): −4.37
- Log2 Fold Change (Horse PBMC; gene APOBEC3Z1B): −3.67
- Log2 Fold Change (Horse PBMC; gene ASPH): 1.93
- Log2 Fold Change (Horse PBMC; gene C2): −2.13
- Log2 Fold Change (Horse PBMC; gene CD180): −2.97
- Log2 Fold Change (Horse PBMC; gene CMKLR1): −3.79
- Log2 Fold Change (Horse PBMC; gene CSF3R): −3.76
- Log2 Fold Change (Horse PBMC; gene CXCL9): −2.55
- Log2 Fold Change (Horse PBMC; gene CYP1B1): −3.83
- Log2 Fold Change (Horse PBMC; gene DENND2A): 3.67
- Log2 Fold Change (Horse PBMC; gene FRMPD4): −3.80
- Log2 Fold Change (Horse PBMC; gene FTL): 1.51
- Log2 Fold Change (Horse PBMC; gene GSAP): 2.00
- Log2 Fold Change (Horse PBMC; gene IL8): 3.54
- Log2 Fold Change (Horse PBMC; gene KCNJ2): 2.06
- Log2 Fold Change (Horse PBMC; gene MAFB): −2.66
- Log2 Fold Change (Horse PBMC; gene ME1): 1.47
- Log2 Fold Change (Horse PBMC; gene MN-SOD): 1.93
- Log2 Fold Change (Horse PBMC; gene NR1H3): −2.56
- Log2 Fold Change (Horse PBMC; gene OSGIN2): 1.88
- Log2 Fold Change (Horse PBMC; gene PLEKHA4): −3.60
- Log2 Fold Change (Horse PBMC; gene PTPN12): 1.43
- Log2 Fold Change (Horse PBMC; gene RIPK2): 2.01
- Log2 Fold Change (Horse PBMC; gene RNASE6): −2.45
- Log2 Fold Change (Horse PBMC; gene SERPINB2): −4.65
- Log2 Fold Change (Horse PBMC; gene SLAMF8): −2.75
- Log2 Fold Change (Horse PBMC; gene SLC7A8): −3.35
- Log2 Fold Change (Horse PBMC; gene SLC7A11): 2.34
- Log2 Fold Change (Horse PBMC; gene SLC37A2): −2.72
- Log2 Fold Change (Horse PBMC; gene SORCS1): −2.71
- Log2 Fold Change (Horse PBMC; gene STAC2): 3.38
- Log2 Fold Change (Horse PBMC; gene STXBP5): 1.57
- Log2 Fold Change (Horse PBMC; gene TGM2): −3.99
- Log2 Fold Change (Horse PBMC; gene TNFSF15): 2.40
- Log2 Fold Change (Horse PBMC; gene TNS3): −3.09
- Log2 Fold Change (Horse PBMC; gene TUBA4A): 1.30
- Log2 Fold Change (Horse PBMC; gene TXN): 1.87
- Log2 Fold Change (Horse PBMC; gene TXNRD1): 2.13
- Log2 Fold Change (Horse PBMC; gene WDR59): 2.19
- Log2 Fold Change (Horse PBMC; gene ZFAND2A): 2.22
- differentially expressed genes (number) (Horse PBMC; [8]): 5951
- down-regulated genes (number) (Horse PBMC; [8]): 3012
- up-regulated genes (number) (Horse PBMC; [8]): 2939
- IC50 (HDAC-6): 1.02 mM
- IC50 (HDAC8 [5]): 0.0827 mM
